Results taken from publication PMC6429200, “Synthesis and Broad Antiviral Activity of Novel 2-aryl-isoindolin-1-ones towards Diverse Enterovirus A71 Clinical Isolates” (Molecules, 2019).
Where two headings read alike, the source gives them in different places.

What was measured:
[1] = Cytotoxicity assay (CPE) on Vero cells; format: cell-based; conditions: African green monkey
Method: (§1) An in-vitro antiviral assay was established using the Africa monkey kidney cell line Vero which was infected with different EV-A71 clinical isolates (BrCr, H, Shenzhen98 and Jiangsu52). A total of 24 synthetic compounds were initially screened in such an assay to determine their inhibitory effect on virus replication at 3-fold diluted concentrations serial (400~0.18 μM). The 50% effective concentration (EC50) of each compound was calculated according to its inhibitory rate values with the Reed–Muench method. The 50% cytotoxic concentration (CC50) was defined as the concentration that inhibited 50% cellular growth in comparison with the controls. The selectivity index (SI) was calculated as CC50/EC50. […] Generally, the EV-A71 H strain was less sensitive to most of the active compounds as compared to the other virus strains.
African green monkey kidney (Vero) cells were purchased from the American Type Culture Collection (ATCC) and were cultured in minimum essential medium (MEM) supplemented with 10% fetal bovine serum (FBS) (GIBCO) and antibiotics (100 U/mL penicillin and […] streptomycin) at 37 °C in a 5% CO2 incubator.
The cytotoxic effects of compounds on Vero cells were detected by the cytopathic effect (CPE) assay. Briefly, cells (3 × 10^4 cells/well) were seeded into 96-well culture plates and incubated overnight. Then, the medium was removed and different concentrations of compounds were applied in triplicate. After 3 days of incubation, the CC50 was defined as the concentration that inhibited 50% cellular growth in comparison with the untreated controls, as calculated by the Reed–Muench method.

[2] = tested on: EV-A71 strain H; assay: CPE inhibition assay for anti-EV-A71 in Vero cells, H strain; format: cell-based, Enterovirus 71 (EV-A71); conditions: for H SI: CC50/EC50; for EC50: Enterovirus A, EVA71, Vero cells, 100TCID50, 48 h
Method: as §1
(§2) EV-A71 strain ShenZhen98 (SZ98) was isolated from the throat swab sample of an HFMD case which occurred in 1998 in China. This was kindly provided by Dr. Qi Jin, Institute of Pathogen Biology, Chinese Academy of Medical Science and Peking Union Medical School, Beijing, China. EV-A71 strains BrCr (VR-1775) and H (VR-1432) were purchased from the ATCC. The EV-A71 strain JS52 was a kind gift from Dr. Xiangzhong Ye, Beijing Wantai Biological Pharmacy Enterprise Co., Ltd. EV-A71 were all passaged in Vero cells.
(§3) The anti-EV-A71 activity of compounds was determined by the CPE inhibition method. Briefly, cells (3 × 10^4 cells/well) were plated into 96-well culture plates for incubation for 24 h. The medium was then removed and cells were infected with EV-A71 with 100TCID50 (50% tissue culture infective doses) in serum-free medium for 1 h at 37 °C. Then, the unbound viruses were removed and various concentrations of compounds were supplemented and incubated for another 48 h. The EC50 was determined by the Reed–Muench method. The selectivity index was calculated as the ratio of CC50/EC50 [15].

[3] = tested on: EV-A71 strain BrCr; assay: CPE inhibition assay for anti-EV-A71 in Vero cells, BrCr strain; format: cell-based, Enterovirus 71 (EV-A71); conditions: for BrCr SI: CC50/EC50; for EC50: Enterovirus A, EVA71, Vero cells, 100TCID50, 48 h
Method: as §1, §2, §3

[4] = tested on: EV-A71 strain Jiangsu52 (JS52); assay: CPE inhibition assay for anti-EV-A71 in Vero cells, Jiangsu52 strain; format: cell-based, Enterovirus 71 (EV-A71); conditions: for Jiangsu52 SI: CC50/EC50; for EC50: Enterovirus A, EVA71, Vero cells, 100TCID50, 48 h
Method: as §1, §2, §3

[5] = tested on: four EV-A71 strains (BrCr, H, Shenzhen98, Jiangsu52); assay: CPE inhibition assay, summary over four EV-A71 strains; format: cell-based, Enterovirus 71 (EV-A71); conditions: for EC50: Enterovirus A, EVA71, Vero, read-out: EC50 towards four EV-A71 strains
Method: as §1, §3

[6] = tested on: EV-A71 strain ShenZhen98 (SZ98); assay: CPE inhibition assay for anti-EV-A71 in Vero cells, Shenzhen98 strain; format: cell-based, Enterovirus 71 (EV-A71); conditions: for Shenzhen98 SI: CC50/EC50; for EC50: Enterovirus A, EVA71, Vero cells, 100TCID50, 48 h
Method: as §1, §2, §3

[7] = tested on: EV71; parameters: method as in PMID 23519203; conditions: cited from earlier work
[8] = Vero cells, 3 days of incubation, Reed–Muench, read-out: CC50

CCOC(=O)c1ccc(OCCC2CCN(c3ccc(C)nn3)CC2)cc1 [pirodavir, reference compound]
CC50 at 3 days [1, 8]: 33.3 µM
H SI [2]: 44
EC50 [2]: 760 ± 90 nM
BrCr SI [3]: 88
EC50 [3]: 0.38 ± 0.04 µM
Jiangsu52 SI [4]: 54
EC50 [4]: 0.62 ± 0.1 µM
EC50 [5]: 0.38 to 0.76 µM
Shenzhen98 SI [6]: 67
EC50 [6]: 0.5 ± 0.06 µM

O=C1c2ccccc2CN1c1ccc(Br)cc1 [Compound A4, 2-(4-bromophenyl)isoindolin-1-one]
CC50 at 3 days [1, 8]: 173 ± 34 µM
H SI [2]: 98
EC50 [2]: 1760 ± 190 nM
BrCr SI [3]: 140
EC50 [3]: 1.23 ± 0.28 µM
Jiangsu52 SI [4]: 131
EC50 [4]: 1.32 ± 0.22 µM
SI towards four EV-A71 strains ([5]; CC50/EC50, range over four strains): 98–199
EC50 [5]: 1.23 to 1.76 µM
EC50 fold higher than pirodavir ([5]; relative to reference compound pirodavir): 2–4 fold
Shenzhen98 SI [6]: 98
EC50 [6]: 1.76 ± 0.15 µM

Cc1ccc(N2Cc3cc(N)ccc3C2=O)cc1 [Compound 6, 5-amino-2-(p-tolyl)isoindolin-1-one]
CC50 at 3 days [1, 8]: 173 ± 34 µM
H SI [2]: 82
EC50 [2]: 2110 ± 230 nM
BrCr SI [3]: 91
EC50 [3]: 1.89 ± 0.32 µM
Jiangsu52 SI [4]: 91
EC50 [4]: 1.89 ± 0.32 µM
EC50 [5]: < 10 µM
Shenzhen98 SI [6]: 86
EC50 [6]: 2 ± 0.25 µM

CN1CCN(c2ccc3c(c2)C(=O)N(c2ccc(Cl)cc2)C3)CC1 [Compound D3, 6-(4-methylpiperazin)-2-(4-chlorophenyl)-isoindolin-1-one]
CC50 at 3 days [1]: 42.4 ± 5.47 µM
H SI [2]: 20
EC50 [2]: 2090 ± 540 nM
BrCr SI [3]: 16
EC50 [3]: 2.71 ± 0.35 µM
Jiangsu52 SI [4]: 32
EC50 [4]: 1.29 ± 0.33 µM
EC50 [5]: < 10 µM
Shenzhen98 SI [6]: 11
EC50 [6]: 3.73 ± 0.78 µM

COc1ccc(N2Cc3ccccc3C2=O)cc1 [Compound A7, 2-(4-methoxyphenyl)isoindolin-1-one]
CC50 at 3 days [1, 8]: 318 ± 54.5 µM
H SI [2]: 34
EC50 [2]: 9350 ± 1440 nM
BrCr SI [3]: 44
EC50 [3]: 7.27 ± 0.86 µM
Jiangsu52 SI [4]: 40
EC50 [4]: 7.92 ± 0.86 µM
EC50 [5]: < 10 µM
Shenzhen98 SI [6]: 44
EC50 [6]: 7.27 ± 0.86 µM

O=C1c2cc(Nc3ccccc3)ccc2CN1c1ccc(Cl)cc1 [Compound D2]
CC50 at 3 days [1, 8]: 115 µM
H SI [2]: / (/ represents selectivity index (SI) value of less than 10)
EC50 [2]: 19600 ± 3770 nM
BrCr SI [3]: / (/ represents selectivity index (SI) value of less than 10)
EC50 [3]: 19.6 ± 3.77 µM
Jiangsu52 SI [4]: / (/ represents selectivity index (SI) value of less than 10)
EC50 [4]: 15.1 ± 3.23 µM
fold loss in activity ([5]; against four in vitro models, relative to A3): 10 fold
Shenzhen98 SI [6]: / (/ represents selectivity index (SI) value of less than 10)
EC50 [6]: 19.8 ± 3.4 µM

CCCNc1ccc2c(c1)CN(c1ccc(OC)cc1)C2=O [Compound B3, 2-(4-methoxyphenyl)-5-(propylamino)isoindolin-1-one]
CC50 at 3 days [1, 8]: 231 µM
H SI [2]: / (/ represents selectivity index (SI) value of less than 10)
BrCr SI [3]: 13
EC50 [3]: 18.4 ± 2.41 µM
Jiangsu52 SI [4]: 11
EC50 [4]: 20.6 ± 1.01 µM
Shenzhen98 SI [6]: 13
EC50 [6]: 18.4 ± 2.41 µM

CCC(=O)Nc1ccc2c(c1)CN(c1ccc(OC)cc1)C2=O [Compound C2, N-(2-(4-methoxyphenyl)-1-oxoisoindolin-5-yl)propionamide]
CC50 at 3 days [1, 8]: 231 µM
H SI [2]: / (/ represents selectivity index (SI) value of less than 10)
BrCr SI [3]: / (/ represents selectivity index (SI) value of less than 10)
Jiangsu52 SI [4]: / (/ represents selectivity index (SI) value of less than 10)
Shenzhen98 SI [6]: / (/ represents selectivity index (SI) value of less than 10)

CCCN(CCC)c1ccc2c(c1)C(=O)N(c1ccc(OC)cc1)C2 [Compound B2, 6-(dipropylamino)-2-(4-methoxyphenyl)isoindolin-1-one]
CC50 at 3 days [1, 8]: 257 ± 35.3 µM
H SI [2]: / (/ represents selectivity index (SI) value of less than 10)
BrCr SI [3]: / (/ represents selectivity index (SI) value of less than 10)
EC50 [3]: 34.6 ± 6.54 µM
Jiangsu52 SI [4]: / (/ represents selectivity index (SI) value of less than 10)
EC50 [4]: 40.3 ± 5.54 µM
Shenzhen98 SI [6]: / (/ represents selectivity index (SI) value of less than 10)
EC50 [6]: 34.6 ± 6.54 µM

COc1ccc(C(=O)Nc2ccc(Br)cc2)cc1N [N-pheylbenzoamide hit, 3-amino-N-(4-bromophenyl)-4-methoxybenzamide]
SI ([7]; Figure 1): 51-110
IC50 ([7]; Figure 1, multiple virus strains, read-out: Anti-EV71 IC50): 5.7 to 12 µM
anti-EV-A71 activity ([7]; against multiple virus strains): moderate anti-EV-A71 activity

CCCNc1ccc2c(c1)C(=O)N(c1ccc(OC)cc1)C2 [Compound B1, 2-(4-methoxyphenyl)-6-(propylamino)isoindolin-1-one]
CC50 at 3 days [1, 8]: 68.4 ± 5.72 µM
H SI [2]: 13
EC50 [2]: 5410 ± 630 nM
BrCr SI [3]: 43
EC50 [3]: 1.59 ± 0.35 µM
Jiangsu52 SI [4]: 43
EC50 [4]: 1.59 ± 0.43 µM
EC50 [5]: < 10 µM
Shenzhen98 SI [6]: 43
EC50 [6]: 1.59 ± 0.35 µM

O=C1c2ccccc2CN1c1ccc2ccncc2c1 [Compound A9, 2-(isoquinolin-7-yl)isoindolin-1-one]
CC50 at 3 days [1, 8]: 96.5 ± 9.34 µM
H SI [2]: / (/ represents selectivity index (SI) value of less than 10)
BrCr SI [3]: / (/ represents selectivity index (SI) value of less than 10)
EC50 [3]: 17 ± 2.92 µM
Jiangsu52 SI [4]: / (/ represents selectivity index (SI) value of less than 10)
EC50 [4]: 17 ± 2.92 µM
Shenzhen98 SI [6]: / (/ represents selectivity index (SI) value of less than 10)
EC50 [6]: 17 ± 2.92 µM

CCC(=O)Nc1ccc2c(c1)C(=O)N(c1ccc(OC)cc1)C2 [Compound C1, N-(2-(4-methoxyphenyl)-3-oxoisoindolin-5-yl)propionamide]
CC50 at 3 days [1, 8]: 152 ± 27 µM
H SI [2]: / (/ represents selectivity index (SI) value of less than 10)
EC50 [2]: > 44400 nM
BrCr SI [3]: 26
EC50 [3]: 5.85 ± 0.6 µM
Jiangsu52 SI [4]: 25
EC50 [4]: 5.91 ± 0.65 µM
Shenzhen98 SI [6]: 26
EC50 [6]: 5.85 ± 0.6 µM
